Assay results reported in PubChem BioAssay AID330 (DTP/NCI, 2004).
“And” between values parts separate entries of the source, which are not always exact repeats. Equal entries are not always repeated. Toxic doses and inconclusive results are not listed. Rule for the calls: active = survival T/C of 150% or more; inactive = T/C below 125% in these data. Peptide text beside a SMILES is read from it. * marks the point of attachment. Cbz = O=C(OCc1ccccc1)*

System: P388 leukemia ip, CD2F1 mice, survival T/C
Assay: NCI In Vivo Anticancer Drug Screen. Data for tumor model P388 Leukemia (intraperitoneal) in CD2F1 (CDF1) mice
Details: endpoint: median survival time, higher = longer survival
In short: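 Mice carrying the transplanted tumor received test compound or vehicle. Survival was recorded in each group, and the value is the treated-group measurement divided by that of the vehicle-treated control group.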

[1] = dose: 50.0 mg/kg/injection, schedule: Q01DX005 (ip), vehicle: Klucel (hydroxypropylcellulose) (HPC)
[2] = dose: 100.0 mg/kg/injection, schedule: Q01DX005 (ip), vehicle: Klucel (hydroxypropylcellulose) (HPC)
[3] = dose: 200.0 mg/kg/injection, schedule: Q01DX005 (ip), vehicle: Klucel (hydroxypropylcellulose) (HPC)
[4] = dose: 25.0 mg/kg/injection, schedule: Q01DX005 (ip), vehicle: Klucel (hydroxypropylcellulose) (HPC)
[5] = dose: 100.0 mg/kg/injection, schedule: Q01DX009 (ip), vehicle: saline with Tween-80
[6] = dose: 200.0 mg/kg/injection, schedule: Q01DX009 (ip), vehicle: saline with Tween-80
[7] = dose: 50.0 mg/kg/injection, schedule: Q01DX009 (ip), vehicle: saline with Tween-80

Measured: T/C

CCCCCCCCCCCCCCCc1cccc(OC)c1C(=O)O
inactive: dose: 7.5 mg/kg/injection, schedule: Q01DX009 (ip), vehicle: saline with Tween-80 107 % of control | dose: 15.0 mg/kg/injection, schedule: Q01DX009 (ip), vehicle: saline with Tween-80 113 % of control | dose: 30.0 mg/kg/injection, schedule: Q01DX009 (ip), vehicle: saline with Tween-80 116 % of control

O=C1Nc2cnc(Cl)nc2Nc2ccccc21
inactive: [1] 99 % of control | [2] 91 % of control | [3] 101 % of control

C/C1=C\C[C@@H](O)/C(C)=C/[C@H]2OC(=O)[C@H](C)[C@@H]2CC1
inactive: dose: 8.75 mg/kg/injection, schedule: Q01DX005 (ip), vehicle: Klucel (hydroxypropylcellulose) (HPC) 94 % of control | dose: 17.5 mg/kg/injection, schedule: Q01DX005 (ip), vehicle: Klucel (hydroxypropylcellulose) (HPC) 102 % of control | dose: 35.0 mg/kg/injection, schedule: Q01DX005 (ip), vehicle: Klucel (hydroxypropylcellulose) (HPC) 100 % of control | dose: 70.0 mg/kg/injection, schedule: Q01DX005 (ip), vehicle: Klucel (hydroxypropylcellulose) (HPC) 86 % of control

C#CCNC(=S)N/N=C(\C)c1ccccn1
inactive: dose: 3.13 mg/kg/injection, schedule: Q01DX009 (ip), vehicle: saline with Tween-80 97 % of control | dose: 6.25 mg/kg/injection, schedule: Q01DX009 (ip), vehicle: saline with Tween-80 97 % of control | dose: 12.5 mg/kg/injection, schedule: Q01DX009 (ip), vehicle: saline with Tween-80 103 % of control

FC(F)(F)C1(C(F)(F)F)OS2(F)(F)(OC(C(F)(F)F)(C(F)(F)F)c3ccccc32)c2ccccc21
inactive: [4] 92 % of control | [1] 95 % of control | [2] 94 % of control

O=C(O)c1cc2ccccc2o1
inactive: dose: 25.0 mg/kg/injection, schedule: Q04DX003 (ip), vehicle: saline with Tween-80 100 % of control | dose: 50.0 mg/kg/injection, schedule: Q04DX003 (ip), vehicle: saline with Tween-80 104 % of control | [5] 95 % of control | dose: 100.0 mg/kg/injection, schedule: Q04DX003 (ip), vehicle: saline with Tween-80 104 % of control | [6] 95 % of control

O=C(NNC1CCN(Cc2ccccc2)CC1)c1ccccc1
inactive: dose: 10.0 mg/kg/injection, schedule: Q04DX003 (ip), vehicle: saline with Tween-80 100 % of control | dose: 20.0 mg/kg/injection, schedule: Q04DX003 (ip), vehicle: saline with Tween-80 95 % of control

NOCc1ccccc1CON
inactive: dose: 37.5 mg/kg/injection, schedule: Q01DX009 (ip), vehicle: saline with Tween-80 86 % of control | dose: 75.0 mg/kg/injection, schedule: Q01DX009 (ip), vehicle: saline with Tween-80 91 % of control | dose: 150.0 mg/kg/injection, schedule: Q01DX009 (ip), vehicle: saline with Tween-80 104 % of control

O=C(N/N=C/c1ccccc1O)c1ccccc1-n1cccc1
inactive: [7] 95 % of control | [5] 104 % of control | [6] 94 % of control

NC(=O)CCSC(N)=S
inactive: [1] 100 % of control | [2] 109 % of control | [3] 100 % of control

CCC(C)C(=O)/C=C/c1ccc(Cl)c(Cl)c1 (stereo not given)
inactive: [7] 99 % of control | [5] 99 % of control | [6] 99 % of control

CCC[CH2][Sn]([F])([F])[CH2]CCC
inactive: dose: 6.25 mg/kg/injection, schedule: Q04DX003 (ip), vehicle: saline 107 % of control | dose: 12.5 mg/kg/injection, schedule: Q04DX003 (ip), vehicle: saline 114 % of control | dose: 25.0 mg/kg/injection, schedule: Q04DX003 (ip), vehicle: saline 118 % of control

N#Cc1ccccc1-n1c(=O)c2cc3c(=O)n(-c4ccccc4C#N)c(=O)c3cc2c1=O
inactive: dose: 25.0 mg/kg/injection, schedule: Q01DX009 (ip), vehicle: saline with Tween-80 100 % of control and 103 % of control | [7] 95 % of control and 97 % of control | [5] 100 % of control and 103 % of control | [6] 102 % of control and 95 % of control | dose: 400.0 mg/kg/injection, schedule: Q01DX009 (ip), vehicle: saline with Tween-80 100 % of control and 96 % of control

Clc1ccc(C(Nc2nncs2)Nc2nncs2)cc1
inactive: dose: 60.0 mg/kg/injection, schedule: Q01DX005 (ip), vehicle: saline with Tween-80 94 % of control | dose: 120.0 mg/kg/injection, schedule: Q01DX005 (ip), vehicle: saline with Tween-80 93 % of control | dose: 240.0 mg/kg/injection, schedule: Q01DX005 (ip), vehicle: saline with Tween-80 98 % of control

NC(=O)C1CCCN1C(=O)C(Cc1ccc(O)cc1)NC(=O)OCc1ccccc1 (stereo not drawn) (Cbz-Tyr-Pro-NH2; configuration not given here)
inactive: dose: 50.0 mg/kg/injection, schedule: Q01DX005 (ip), vehicle: saline with Tween-80 104 % of control | dose: 100.0 mg/kg/injection, schedule: Q01DX005 (ip), vehicle: saline with Tween-80 97 % of control | dose: 200.0 mg/kg/injection, schedule: Q01DX005 (ip), vehicle: saline with Tween-80 94 % of control

CC1(C)C(=O)C2=C(OC3([Se]2)C(=O)C(C)(C)C(=O)C(C)(C)C3=O)C(C)(C)C1=O
inactive: dose: 7.5 mg/kg/injection, schedule: Q01DX005 (ip), vehicle: Klucel (hydroxypropylcellulose) (HPC) 100 % of control | dose: 15.0 mg/kg/injection, schedule: Q01DX005 (ip), vehicle: Klucel (hydroxypropylcellulose) (HPC) 107 % of control | dose: 30.0 mg/kg/injection, schedule: Q01DX005 (ip), vehicle: Klucel (hydroxypropylcellulose) (HPC) 107 % of control | dose: 60.0 mg/kg/injection, schedule: Q01DX005 (ip), vehicle: Klucel (hydroxypropylcellulose) (HPC) 99 % of control | dose: 120.0 mg/kg/injection, schedule: Q01DX005 (ip), vehicle: Klucel (hydroxypropylcellulose) (HPC) 102 % of control

CC(C)(C)N1COCO[C@H]2CCC[C@@H]21
inactive: dose: 25.0 mg/kg/injection, schedule: Q04DX002 (ip), vehicle: Klucel (hydroxypropylcellulose) (HPC) 100 % of control | dose: 50.0 mg/kg/injection, schedule: Q04DX002 (ip), vehicle: Klucel (hydroxypropylcellulose) (HPC) 102 % of control | dose: 100.0 mg/kg/injection, schedule: Q04DX002 (ip), vehicle: Klucel (hydroxypropylcellulose) (HPC) 114 % of control | dose: 200.0 mg/kg/injection, schedule: Q04DX002 (ip), vehicle: Klucel (hydroxypropylcellulose) (HPC) 100 % of control and 123 % of control

c1ccc(CCn2c(-c3ccncc3)nc3ccccc32)nc1
inactive: [4] 109 % of control | [1] 104 % of control | [2] 107 % of control | [3] 105 % of control

CCOP(=O)(OCC)Oc1c(OC)cc(C2OCCO2)cc1OC
inactive: dose: 50.0 mg/kg/injection, schedule: Q01DX009 (ip), vehicle: saline 103 % of control | dose: 100.0 mg/kg/injection, schedule: Q01DX009 (ip), vehicle: saline 103 % of control | dose: 200.0 mg/kg/injection, schedule: Q01DX009 (ip), vehicle: saline 117 % of control
